Molecular target: T1, TXDC-17 (C. elegans TRP14) (Caenorhabditis elegans, UniProt Q9BL27)
T1 construct: recombinant, purified with the same methodologies as the human orthologue
T1 sequence (Q9BL27 1-132): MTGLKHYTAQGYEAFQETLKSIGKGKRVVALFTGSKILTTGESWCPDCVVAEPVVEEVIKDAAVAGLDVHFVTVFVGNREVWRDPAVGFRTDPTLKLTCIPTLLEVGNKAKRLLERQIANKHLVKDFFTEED
Experiment: coupled cystine reduction assay with C. elegans TRXR-1
Assay type: biochemical
Settings: with C. elegans TRXR-1 as reductase

Question: With `N[C@@H](CSSC[C@H](N)C(=O)O)C(=O)O` [cystine] as the compound, how does the “coupled cystine reduction assay with C. elegans TRXR-1” value read?
Answer: TXDC-17, together with its native reductase, could efficiently reduce cystine in vitro

Reference: publication PMC11217419, “TRP14 is the rate-limiting enzyme for intracellular cystine reduction and regulates proteome cysteinylation” (The EMBO Journal, 2024)
